Data published in patent publication US12421232B2, “Kinase inhibitor compounds and compositions and methods of use” (ICAHN SCHOOL OF MEDICINE AT MOUNT SINAI, priority 2018, dated 2025).
Where two headings read alike, the source gives them in different places. Marks after values point to notes of the source that are not given here.

How the values were obtained:
[1] = tested on: human β-cells (dispersed human islet cells); assay: Human β-cell proliferation assay (Ki67 and insulin staining); assay type: cell-based
[2] = tested on: NFAT2-GFP nuclear translocation in R7T1 rodent beta cells; assay: NFAT2 translocation assay; assay type: cell-based; conditions: 10 μM, 24 hours
Text: NFAT2T Translocation Assay. […] At least 1000 cells were counted.

DYRK1A [3] = target: T1, DYRK1A (Homo sapiens, UniProt Q13627); assay: KINOMEscan Assay (DiscoverX); assay type: binding; design: purchased Life Technologies
CSNK1E = target: T2, CSNK1E (Homo sapiens, UniProt P49674); assay: KINOMEscan Assay (DiscoverX); assay type: binding; conditions: read-out: % DMSO Ctrl
T2 construct: purchased DiscoverX

CLK2 = target: T3, CLK2 (Homo sapiens, UniProt P49760); assay: KINOMEscan Assay (DiscoverX); assay type: binding; conditions: read-out: % DMSO Ctrl
T3 construct: purchased DiscoverX
T3 sequence (P49760 whole entry): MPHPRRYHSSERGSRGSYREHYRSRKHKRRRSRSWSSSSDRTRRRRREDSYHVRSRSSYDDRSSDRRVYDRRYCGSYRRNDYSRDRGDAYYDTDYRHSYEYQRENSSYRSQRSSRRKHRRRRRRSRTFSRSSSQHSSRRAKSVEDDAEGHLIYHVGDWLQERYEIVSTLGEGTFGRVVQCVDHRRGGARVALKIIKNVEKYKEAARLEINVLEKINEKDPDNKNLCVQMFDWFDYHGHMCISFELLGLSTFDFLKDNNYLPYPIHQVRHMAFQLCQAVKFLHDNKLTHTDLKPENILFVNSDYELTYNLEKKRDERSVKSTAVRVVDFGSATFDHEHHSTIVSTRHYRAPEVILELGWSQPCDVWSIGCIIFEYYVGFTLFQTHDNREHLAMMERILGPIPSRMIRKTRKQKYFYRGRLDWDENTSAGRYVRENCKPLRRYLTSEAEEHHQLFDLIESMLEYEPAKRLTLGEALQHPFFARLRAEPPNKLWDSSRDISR

CDKL5 = target: T4, CDKL5 (Homo sapiens, UniProt O76039); assay: KINOMEscan Assay (DiscoverX); assay type: binding; conditions: read-out: % DMSO Ctrl
T4 construct: purchased DiscoverX

CDK8 = target: T5, CDK8 (Homo sapiens, UniProt P49336); assay: KINOMEscan Assay (DiscoverX); assay type: binding; conditions: read-out: % DMSO Ctrl
T5 construct: purchased DiscoverX
T5 sequence (P49336 whole entry): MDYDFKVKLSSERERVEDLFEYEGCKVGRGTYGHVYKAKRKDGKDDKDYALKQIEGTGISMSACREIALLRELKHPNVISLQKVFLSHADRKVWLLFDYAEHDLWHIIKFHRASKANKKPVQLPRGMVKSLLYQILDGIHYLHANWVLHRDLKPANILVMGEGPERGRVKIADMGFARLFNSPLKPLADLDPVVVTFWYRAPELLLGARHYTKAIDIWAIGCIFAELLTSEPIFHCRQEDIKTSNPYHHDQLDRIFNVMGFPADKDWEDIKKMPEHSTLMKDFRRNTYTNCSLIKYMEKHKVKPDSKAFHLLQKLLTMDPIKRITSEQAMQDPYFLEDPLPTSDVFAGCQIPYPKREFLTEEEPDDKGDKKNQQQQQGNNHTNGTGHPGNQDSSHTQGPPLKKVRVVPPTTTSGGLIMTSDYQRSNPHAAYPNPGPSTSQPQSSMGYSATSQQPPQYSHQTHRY

CLK4 = target: T6, CLK4 (Homo sapiens, UniProt Q9HAZ1); assay: KINOMEscan Assay (DiscoverX); assay type: binding; conditions: read-out: % DMSO Ctrl
T6 construct: purchased DiscoverX

CIT = target: T7, CIT (Homo sapiens, UniProt O14578); assay: KINOMEscan Assay (DiscoverX); assay type: binding; conditions: read-out: % DMSO Ctrl
T7 construct: purchased DiscoverX
T7 sequence (O14578 whole entry): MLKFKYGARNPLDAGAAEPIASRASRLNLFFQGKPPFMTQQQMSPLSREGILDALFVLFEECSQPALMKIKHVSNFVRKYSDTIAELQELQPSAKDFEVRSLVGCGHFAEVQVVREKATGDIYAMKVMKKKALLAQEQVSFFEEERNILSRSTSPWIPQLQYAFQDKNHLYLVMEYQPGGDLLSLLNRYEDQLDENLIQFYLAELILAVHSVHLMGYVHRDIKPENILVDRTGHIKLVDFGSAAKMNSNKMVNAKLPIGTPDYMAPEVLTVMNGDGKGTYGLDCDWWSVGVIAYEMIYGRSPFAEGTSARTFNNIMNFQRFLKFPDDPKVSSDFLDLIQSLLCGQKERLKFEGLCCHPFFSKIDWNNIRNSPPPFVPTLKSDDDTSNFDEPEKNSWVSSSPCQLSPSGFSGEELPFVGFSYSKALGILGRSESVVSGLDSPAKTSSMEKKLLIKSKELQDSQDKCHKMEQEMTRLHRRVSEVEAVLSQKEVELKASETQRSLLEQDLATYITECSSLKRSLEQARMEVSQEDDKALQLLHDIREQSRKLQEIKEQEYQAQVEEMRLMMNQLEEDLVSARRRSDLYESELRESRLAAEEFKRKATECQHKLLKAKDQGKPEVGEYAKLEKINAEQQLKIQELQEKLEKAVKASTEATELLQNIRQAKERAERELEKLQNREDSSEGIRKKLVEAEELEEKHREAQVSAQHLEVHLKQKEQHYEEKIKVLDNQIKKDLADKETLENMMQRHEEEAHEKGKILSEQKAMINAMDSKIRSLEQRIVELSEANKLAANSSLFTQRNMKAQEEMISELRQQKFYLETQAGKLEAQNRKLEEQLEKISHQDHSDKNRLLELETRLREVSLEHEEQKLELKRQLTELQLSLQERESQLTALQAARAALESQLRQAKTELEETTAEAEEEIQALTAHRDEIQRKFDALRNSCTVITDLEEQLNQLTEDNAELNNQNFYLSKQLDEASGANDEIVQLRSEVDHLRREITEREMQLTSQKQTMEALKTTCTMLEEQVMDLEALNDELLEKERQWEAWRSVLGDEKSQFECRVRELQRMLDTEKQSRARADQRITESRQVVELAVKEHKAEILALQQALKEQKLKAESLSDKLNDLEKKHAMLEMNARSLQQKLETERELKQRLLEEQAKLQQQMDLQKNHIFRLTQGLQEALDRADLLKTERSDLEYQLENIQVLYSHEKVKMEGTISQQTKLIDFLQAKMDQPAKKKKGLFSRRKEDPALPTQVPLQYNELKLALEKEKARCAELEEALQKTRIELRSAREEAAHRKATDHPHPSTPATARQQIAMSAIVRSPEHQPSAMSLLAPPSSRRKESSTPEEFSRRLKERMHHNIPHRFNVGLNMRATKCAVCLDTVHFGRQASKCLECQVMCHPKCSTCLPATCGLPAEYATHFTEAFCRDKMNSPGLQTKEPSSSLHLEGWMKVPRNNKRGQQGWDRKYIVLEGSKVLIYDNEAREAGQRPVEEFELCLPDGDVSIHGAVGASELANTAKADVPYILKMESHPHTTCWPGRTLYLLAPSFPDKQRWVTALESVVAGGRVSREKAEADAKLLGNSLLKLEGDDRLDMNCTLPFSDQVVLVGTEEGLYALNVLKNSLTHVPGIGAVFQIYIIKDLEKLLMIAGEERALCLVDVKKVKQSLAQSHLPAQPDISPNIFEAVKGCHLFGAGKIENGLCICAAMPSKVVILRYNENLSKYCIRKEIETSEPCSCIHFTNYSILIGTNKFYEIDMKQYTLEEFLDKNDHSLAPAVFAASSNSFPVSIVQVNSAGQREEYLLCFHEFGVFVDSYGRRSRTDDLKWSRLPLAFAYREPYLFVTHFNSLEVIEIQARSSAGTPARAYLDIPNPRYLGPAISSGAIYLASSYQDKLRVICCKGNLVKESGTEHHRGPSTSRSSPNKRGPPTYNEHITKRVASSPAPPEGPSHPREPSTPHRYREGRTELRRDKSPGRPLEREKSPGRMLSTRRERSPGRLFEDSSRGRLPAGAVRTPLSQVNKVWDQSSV

HIPK1 = target: T8, HIPK1 (Homo sapiens, UniProt Q86Z02); assay: KINOMEscan Assay (DiscoverX); assay type: binding; conditions: read-out: % DMSO Ctrl
T8 construct: purchased DiscoverX

CSNK2A2 = target: T9, CSNK2A2 (Homo sapiens, UniProt P19784); assay: KINOMEscan Assay (DiscoverX); assay type: binding; conditions: read-out: % DMSO Ctrl
T9 construct: purchased DiscoverX

DAPK3 = target: T10, DAPK3 (Homo sapiens, UniProt O43293); assay: KINOMEscan Assay (DiscoverX); assay type: binding; conditions: read-out: % DMSO Ctrl
T10 construct: purchased DiscoverX
T10 sequence (O43293 whole entry): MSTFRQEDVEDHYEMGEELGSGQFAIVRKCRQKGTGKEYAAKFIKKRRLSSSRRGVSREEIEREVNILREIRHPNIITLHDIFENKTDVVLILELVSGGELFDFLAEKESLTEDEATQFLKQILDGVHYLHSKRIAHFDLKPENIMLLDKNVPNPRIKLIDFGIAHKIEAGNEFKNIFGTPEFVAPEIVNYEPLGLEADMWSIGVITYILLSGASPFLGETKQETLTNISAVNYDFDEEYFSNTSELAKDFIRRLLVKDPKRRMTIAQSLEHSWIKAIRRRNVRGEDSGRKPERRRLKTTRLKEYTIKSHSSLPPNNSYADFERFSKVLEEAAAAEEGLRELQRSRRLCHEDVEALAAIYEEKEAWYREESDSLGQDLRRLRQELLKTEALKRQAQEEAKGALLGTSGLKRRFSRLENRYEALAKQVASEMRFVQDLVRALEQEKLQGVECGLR

DAPK1 = target: T11, DAPK1 (Homo sapiens, UniProt P53355); assay: KINOMEscan Assay (DiscoverX); assay type: binding; conditions: read-out: % DMSO Ctrl
T11 construct: purchased DiscoverX

CSNK1D = target: T12, CSNK1D (Homo sapiens, UniProt P48730); assay: KINOMEscan Assay (DiscoverX); assay type: binding; conditions: read-out: % DMSO Ctrl
T12 construct: purchased DiscoverX
T12 sequence (P48730 whole entry): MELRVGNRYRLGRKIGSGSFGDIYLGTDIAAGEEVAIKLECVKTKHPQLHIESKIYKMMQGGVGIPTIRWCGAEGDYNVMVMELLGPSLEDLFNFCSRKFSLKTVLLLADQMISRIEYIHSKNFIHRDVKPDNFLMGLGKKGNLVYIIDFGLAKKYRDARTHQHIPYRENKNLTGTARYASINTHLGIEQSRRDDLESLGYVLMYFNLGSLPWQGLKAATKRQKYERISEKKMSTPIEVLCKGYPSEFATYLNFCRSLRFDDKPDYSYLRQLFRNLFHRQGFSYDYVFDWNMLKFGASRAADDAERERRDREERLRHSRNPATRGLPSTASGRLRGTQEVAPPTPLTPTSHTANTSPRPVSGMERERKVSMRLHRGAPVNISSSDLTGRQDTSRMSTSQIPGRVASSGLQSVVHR

TGFBR2 = target: T13, TGFBR2 (Homo sapiens, UniProt P37173); assay: KINOMEscan Assay (DiscoverX); assay type: binding; conditions: read-out: % DMSO Ctrl
T13 construct: purchased DiscoverX

DRAK2 = target: T14, DRAK2 (Homo sapiens, UniProt O94768); assay: KINOMEscan Assay (DiscoverX); assay type: binding; conditions: read-out: % DMSO Ctrl
T14 construct: purchased DiscoverX

CLK1 = target: T15, CLK1 (Homo sapiens, UniProt P49759); assay: KINOMEscan Assay (DiscoverX); assay type: binding; conditions: read-out: % DMSO Ctrl
T15 construct: purchased DiscoverX
T15 sequence (P49759 whole entry): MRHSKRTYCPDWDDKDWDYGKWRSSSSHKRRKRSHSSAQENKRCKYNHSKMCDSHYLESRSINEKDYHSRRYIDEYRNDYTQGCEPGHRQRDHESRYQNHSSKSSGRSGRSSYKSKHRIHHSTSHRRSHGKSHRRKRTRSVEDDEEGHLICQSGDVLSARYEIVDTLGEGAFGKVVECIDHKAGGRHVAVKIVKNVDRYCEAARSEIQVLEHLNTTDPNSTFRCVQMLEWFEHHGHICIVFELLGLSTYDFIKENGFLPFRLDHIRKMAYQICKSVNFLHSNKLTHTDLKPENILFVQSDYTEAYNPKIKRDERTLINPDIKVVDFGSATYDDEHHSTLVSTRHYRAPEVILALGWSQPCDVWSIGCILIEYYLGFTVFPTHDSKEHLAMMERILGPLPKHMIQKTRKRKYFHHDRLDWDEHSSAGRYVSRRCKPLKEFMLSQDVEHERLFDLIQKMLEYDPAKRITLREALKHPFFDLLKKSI

CDK11 = target: T16, CDK11 (Homo sapiens, UniProt Q9BWU1); assay: KINOMEscan Assay (DiscoverX); assay type: binding; conditions: read-out: % DMSO Ctrl
T16 construct: purchased DiscoverX
T16 sequence (Q9BWU1 whole entry): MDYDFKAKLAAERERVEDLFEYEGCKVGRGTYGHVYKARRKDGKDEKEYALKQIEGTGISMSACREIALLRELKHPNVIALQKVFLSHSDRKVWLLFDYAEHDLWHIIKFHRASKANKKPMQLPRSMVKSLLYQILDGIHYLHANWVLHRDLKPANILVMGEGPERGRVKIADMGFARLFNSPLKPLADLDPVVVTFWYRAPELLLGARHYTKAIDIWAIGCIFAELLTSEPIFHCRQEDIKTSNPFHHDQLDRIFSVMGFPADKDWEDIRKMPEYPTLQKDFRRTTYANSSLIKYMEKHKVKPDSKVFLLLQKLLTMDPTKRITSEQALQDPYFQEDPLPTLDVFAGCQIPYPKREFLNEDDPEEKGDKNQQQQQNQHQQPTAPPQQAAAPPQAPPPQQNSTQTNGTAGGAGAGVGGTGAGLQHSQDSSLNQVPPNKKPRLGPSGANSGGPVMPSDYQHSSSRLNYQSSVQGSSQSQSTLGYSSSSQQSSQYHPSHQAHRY

VPS34 = target: T17, VPS34 (Homo sapiens, UniProt Q8NEB9); assay: KINOMEscan Assay (DiscoverX); assay type: binding; conditions: read-out: % DMSO Ctrl
T17 construct: purchased DiscoverX

DYRK1A [4] = target: T1, DYRK1A; assay: FRET-based LanthaScreen Eu Kinase Binding Assay (Life Technologies)
Adrenergic α2B = target: T18, Adrenergic α2B (Homo sapiens, UniProt P18089); assay: Eurofins CEREP Screen; assay type: binding
T18 construct: purchased Eurofins CEREP

[5] = target: T19, Serotonin (5-Hydroxytryptamine) 5-HT2A (Homo sapiens, UniProt P28223); assay: Eurofins CEREP Screen; assay type: binding
T19 construct: purchased Eurofins CEREP

Adrenergic α2C = target: T20, Adrenergic α2C (Homo sapiens, UniProt P18825); assay: Eurofins CEREP Screen; assay type: binding
T20 construct: purchased Eurofins CEREP

Adrenergic α2A = Adrenergic α2A (Homo sapiens, UniProt P08913); assay: biochemical
[6] = target: T21, Serotonin (5-Hydroxytryptamine) 5-HT2C (Homo sapiens, UniProt P28335); assay: Eurofins CEREP Screen; assay type: binding
T21 construct: purchased Eurofins CEREP

[7] = target: T22, Serotonin (5-Hydroxytryptamine) 5-HT7 (Homo sapiens, UniProt P34969); assay: Eurofins CEREP Screen; assay type: binding
T22 construct: Eurofins CEREP (contract screen)

[8] = target: T23, Serotonin (5-Hydroxytryptamine) 5-HT6 (Homo sapiens, UniProt P50406); assay: Eurofins CEREP Screen; assay type: binding
T23 construct: Eurofins CEREP (contract screen)

468 kinases = assay: KINOMEscan profile, whole panel; assay type: binding; conditions: 10 μM
[9] = target: T24, Transporter, Norepinephrine (NET) (Homo sapiens, UniProt P23975); assay: Eurofins CEREP Screen; assay type: binding
T24 construct: Eurofins CEREP (contract screen)

Compound | remaining binding at 10 µM (CSNK1E) [%] | remaining binding at 10 µM (CLK2) [%] | remaining binding at 10 µM (CDKL5) [%] | remaining binding at 10 µM (CDK8) [%] | remaining binding at 10 µM (CLK4) [%] | remaining binding at 10 µM (CIT) [%] | remaining binding at 10 µM (HIPK1) [%] | remaining binding at 10 µM (CSNK2A2) [%] | remaining binding at 10 µM (DAPK3) [%] | remaining binding at 10 µM (DAPK1) [%] | remaining binding at 10 µM (CSNK1D) [%] | remaining binding at 10 µM (TGFBR2) [%] | remaining binding at 10 µM (DRAK2) [%] | remaining binding at 10 µM (CLK1) [%] | remaining binding at 10 µM (CDK11) [%] | also measured
COc1ccc2c(c1)[nH]c1c(C)nc(CO)cc12 [Compound 2-8, (1-Methyl-7-methoxy-9H-pyrido[3,4-b]indol-3-yl)methanol] | – | – | – | – | – | – | – | – | – | – | – | – | – | – | – | beta cell toxicity [1]: did not cause toxicity; NFAT2 translocation to nucleus [2]: drove NFAT2 translocation to nucleus
COc1ccc2c3ccnc(C)c3n(CCCc3noc(N)n3)c2c1 [Compound 20-13, 3-(3-(7-Methoxy-1-methyl-β-carbolin-9-yl)propyl)-5-amino-1,2,4-oxadiazole] | 61 | 4.2 | 21 | 100 | 1.7 | 66 | 9.5 | 50 | 91 | 91 | 65 | 100 | 100 | 4.1 | 81 | % DMSO Ctrl (DYRK1A [3]; DYRK1A, 10 μM): 0 ^b % DMSO Ctrl; human β-cell proliferation (in words) ([1]; 5 μM, versus harmine at 10 μM): induced Human 3-Cell proliferation to a greater extent that harmine; remaining binding at 10 µM (VPS34): 42%
C#CCn1c2cc(OC)ccc2c2ccnc(C)c21 [Compound 20-23a, 3-(7-Methoxy-1-methyl-β-carbolin-9-yl)-propan-1-yne] | 26 | 0.9 | 22 | 26 | 1.1 | 26 | 12 | 54 | 75 | 89 | 38 | 98 | 100 | 1.9 | 40 | remaining binding at 10 µM (DYRK1A [3]; read-out: % DMSO Ctrl): 0%; IC50 (DYRK1A [4]): 8 nM; remaining binding at 10 µM (VPS34; VPS34, 10 μM): 89%
COc1ccc2c(c1)[nH]c1c(C)nccc12 [Harmine, reference compound] | – | – | – | – | – | – | – | – | – | – | – | – | – | – | – | inhibition at 10 µM (Adrenergic α2B): 32%; inhibition at 10 µM [5]: 23%; inhibition at 10 µM (Adrenergic α2C): 45%; inhibition at 10 µM (Adrenergic α2A): 59%; inhibition at 10 µM [6]: 75%; inhibition at 10 µM [7]: 30%; inhibition at 10 µM [8]: 37%; kinases inhibited (<20% activity remaining) in addition to DYRK1A (468 kinases): 16; inhibition at 10 µM [9]: 86%
